Reference: the supplement of paper PMC10307832

What was measured:
Assay in all cases: relative viability (nuclei count vs DMSO), 5 days (fraction); higher = more cells survive
[1] = compound: C1COCCN1CC2=CC(=O)C(=CO2)OCCCCCSC3=C4C=CC(=CC4=NC=C3)C(F)(F)F [EHT 1864] + COc1cc2c(Oc3ccc(NC(=O)C4(C(=O)Nc5ccc(F)cc5)CC4)cc3F)ccnc2cc1OCCCN1CCOCC1 [Foretinib] (partner 0.25 µM)
In short: (§1)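 Relative viability is defined as nuclei in treated wells over nuclei in vehicle wells. Duplicate plates were run and medians reported. Lung cancer cell lines in 1536-well plates were dosed by pin tool one day after seeding, with one drug or with a fixed anchor-drug dose plus five library-drug doses (not always all listed) in √10 steps, and nuclei were counted after 5 days.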

[2] = compound: C1COCCN1CC2=CC(=O)C(=CO2)OCCCCCSC3=C4C=CC(=CC4=NC=C3)C(F)(F)F [EHT 1864] + CCNC(=O)c1noc(-c2cc(C(C)C)c(O)cc2O)c1-c1ccc(CN2CCOCC2)cc1 [Luminespib] (partner 0.01 µM)
In short: as §1

[3] = compound: C1COCCN1CC2=CC(=O)C(=CO2)OCCCCCSC3=C4C=CC(=CC4=NC=C3)C(F)(F)F [EHT 1864] + Cc1cc(Nc2cc(N3CCN(C)CC3)nc(Sc3ccc(NC(=O)C4CC4)cc3)n2)n[nH]1 [Tozasertib] (partner 0.1 µM)
In short: as §1

[4] = compound: C1COCCN1CC2=CC(=O)C(=CO2)OCCCCCSC3=C4C=CC(=CC4=NC=C3)C(F)(F)F [EHT 1864] + NC(=O)Nc1cc(-c2cccc(F)c2)sc1C(=O)N[C@H]1CCCNC1 [AZD7762] (partner 0.2 µM)
In short: as §1

Cell Line | relative viability ([1]; first compound 0.04 µM) | relative viability ([1]; first compound 0.1265 µM) | relative viability ([1]; first compound 0.4 µM) | relative viability ([1]; first compound 1.265 µM) | relative viability ([1]; first compound 4 µM) | relative viability ([2]; first compound 0.04 µM) | relative viability ([2]; first compound 0.1265 µM) | relative viability ([2]; first compound 0.4 µM) | relative viability ([2]; first compound 1.265 µM) | relative viability ([2]; first compound 4 µM) | relative viability ([3]; first compound 0.04 µM) | relative viability ([3]; first compound 0.1265 µM) | relative viability ([3]; first compound 0.4 µM) | relative viability ([3]; first compound 1.265 µM) | relative viability ([3]; first compound 4 µM) | relative viability ([4]; first compound 0.04 µM) | relative viability ([4]; first compound 0.1265 µM) | relative viability ([4]; first compound 0.4 µM) | relative viability ([4]; first compound 1.265 µM) | relative viability ([4]; first compound 4 µM)
A549 | 0.995 | 0.986 | 0.978 | 0.815 | 0.714 | – | – | – | – | – | – | – | – | – | – | – | – | – | – | –
COR-L23 | 1.01 | 0.922 | 1 | 0.948 | 0.86 | 0.699 | 0.528 | 0.613 | 0.642 | 0.494 | 0.248 | 0.176 | 0.21 | 0.131 | 0.155 | – | – | – | – | –
COR-L 105 | 0.959 | 1.02 | 1.25 | 1.19 | 0.917 | 0.748 | 0.751 | 0.808 | 0.628 | 0.686 | 0.343 | 0.36 | 0.367 | 0.369 | 0.693 | – | – | – | – | –
Calu-6 | 0.932 | 0.853 | 0.846 | 0.913 | 0.87 | – | – | – | – | – | – | – | – | – | – | – | – | – | – | –
EBC-1 | 0.0988 | 0.119 | 0.116 | 0.115 | 0.0993 | – | – | – | – | – | – | – | – | – | – | – | – | – | – | –
HCC-44 | – | – | – | – | – | 1.04 | 0.906 | 0.924 | 1.02 | 1.33 | 0.919 | 0.827 | 0.878 | 0.771 | 0.926 | 1.01 | 0.896 | 0.934 | 1.03 | 1.01
HCC-78 | 0.578 | 0.474 | 0.538 | 0.606 | 0.633 | – | – | – | – | – | 0.432 | 0.236 | 0.278 | 0.335 | 0.563 | 0.82 | 0.59 | 0.67 | 0.602 | 0.422
HCC-366 | 0.914 | 0.859 | 0.888 | 0.891 | 0.963 | – | – | – | – | – | 0.13 | 0.168 | 0.0914 | 0.0579 | 0.0542 | 0.262 | 0.232 | 0.248 | 0.28 | 0.243
IA-LM | 1.21 | – | 1.09 | 1.03 | 0.901 | – | – | – | – | – | – | – | – | – | – | – | – | – | – | –
NCI-H520 | 0.56 | 0.734 | 0.736 | 0.697 | 0.744 | 0.221 | 0.227 | 0.219 | 0.193 | 0.234 | 0.377 | 0.376 | 0.388 | 0.483 | 0.377 | – | – | – | – | –
NCI-H522 | – | – | – | – | – | 1.18 | – | 1.23 | 1.06 | 1.22 | 0.583 | 0.471 | 0.561 | 0.503 | 0.541 | 0.844 | 0.774 | 0.802 | 0.973 | 1.07
NCI-H661 | 1.03 | 0.956 | 0.993 | 0.986 | 0.817 | 0.951 | 0.838 | 0.877 | 0.77 | 0.565 | 0.385 | 0.335 | 0.355 | 0.33 | 0.379 | – | – | – | – | –
NCI-H1299 | 1.05 | 1.09 | 1.06 | 1.04 | 1.07 | – | – | – | – | – | – | – | – | – | – | – | – | – | – | –
NCI-H1563 | 0.962 | 0.896 | 0.978 | 0.857 | 0.908 | 0.497 | 0.503 | 0.556 | 0.54 | 0.553 | – | – | – | – | – | – | – | – | – | –
NCI-H1648 | – | – | – | – | – | – | – | – | – | – | 0.486 | 0.376 | 0.396 | 0.411 | 0.441 | 0.72 | – | 0.609 | 0.662 | 0.866
NCI-H1650 | – | – | 1.18 | 0.896 | 0.92 | – | – | 0.203 | 0.201 | 0.198 | – | – | 0.385 | 0.355 | 0.242 | – | – | – | – | –
NCI-H1703 | 0.309 | – | 0.299 | 0.339 | 0.382 | – | – | – | – | – | – | – | – | – | – | 0.128 | – | 0.118 | 0.128 | 0.15
NCI-H1792 | – | – | – | – | – | 0.393 | – | 0.376 | 0.361 | 0.533 | – | – | – | – | – | 0.746 | – | 0.733 | 0.592 | 0.738
NCI-H2009 | 1.17 | 1.12 | 1.22 | 1.2 | 1.07 | 1 | 0.926 | 0.979 | 0.913 | 0.789 | 0.736 | 0.648 | 0.765 | 0.532 | 0.476 | – | – | – | – | –
NCI-H2023 | 0.787 | 0.855 | 0.957 | 0.876 | 0.778 | 0.585 | 0.723 | 0.704 | 0.634 | 0.68 | 0.281 | 0.294 | 0.29 | 0.248 | 0.207 | – | – | – | – | –
NCI-H2228 | 0.81 | 0.758 | 0.904 | 0.836 | 0.9 | 0.143 | 0.145 | 0.182 | 0.193 | 0.0861 | 0.335 | 0.332 | 0.209 | 0.204 | 0.16 | – | – | – | – | –
SK-LU-1 | 0.843 | 0.772 | 0.779 | 0.775 | 0.746 | 0.184 | 0.181 | 0.214 | 0.229 | 0.219 | 0.313 | 0.286 | 0.274 | 0.297 | 0.293 | – | – | – | – | –
SK-MES-1 | 0.951 | 0.866 | 1.06 | 1.11 | 0.799 | 0.596 | 0.64 | 0.748 | 0.726 | 0.798 | 0.972 | 0.885 | 0.888 | 0.823 | 0.81 | – | – | – | – | –
SW 1573 | 0.805 | 0.722 | 0.816 | 0.746 | 0.896 | 0.24 | 0.356 | 0.31 | 0.215 | 0.187 | 0.173 | 0.158 | 0.172 | 0.225 | 0.154 | – | – | – | – | –
UMC-11 | 0.935 | 0.962 | – | 1.07 | 1.11 | 1.03 | 0.925 | – | 1.02 | 1.12 | 0.206 | – | 0.2 | 0.207 | 0.192 | – | – | – | – | –
